Experimental data from patent US8969542B2, “HPV polyepitope constructs and uses thereof” (priority 2007, dated 2015).
Where no end group is shown, it is not given here.

Legend:
DRB1*0802 (DR8w2) = DRB1*0802 (DR8w2) (Homo sapiens, UniProt P01903+P01911, A100R/A103L/A169T/F76Y/H45Y/I96F/K41T/L162R/M171V/P40S/Q125H/Q178H/Q39Y/Q99D/R218S/R42G/S66Y/V115G/W38E); test: biochemical
HLA A0101 = HLA A0101 (Homo sapiens, UniProt P04439, A114D/A174V/A182V/D101N/D185E/E176A/E190D/L180R/Q94H/R68K/S129P/T187R/V100A/V91M/W191G); test: HLA class I competition binding assay using soluble HLA
HLA A2601 = HLA A2601 (Homo sapiens, UniProt P04439, A114D/A173T/A270S/D101N/D185E/E277Q/E87N/F33Y/G231S/I121R/I218V/K168Q/L180W/L300P/L318F/P208A/P217A/Q86R/Q94H/R138Q/S129P/T187R/T323A/T345S/V100A/V358M); test: as above
DRB1*1101 (DR5) = DRB1*1101 (DR5) (Homo sapiens, UniProt P01903+P01911, A100R/A169T/A87E/I96F/K41T/L162R/M171V/P40S/Q125H/Q178H/Q39Y/Q99D/R42S/S66Y/T262R/V115G/W38E); test: biochemical
HLA A2902 = HLA A2902 (Homo sapiens, UniProt P04439, A270S/D101N/D185E/E176V/E277Q/E87Q/F33T/G231S/H175R/I121M/I218V/I322F/K168Q/L300P/L318F/M331R/P208A/P217A/Q86L/T323A/T345S/V100A/V358M); test: HLA class I competition binding assay using soluble HLA
HLA A3002 = HLA A3002 (Homo sapiens, UniProt P04439, D101N/D140H/D185E/E176R/F33S/G80R/H175R/K168Q/Q94H/R138E/R41S/V100E); test: as above
DRB5*0101 (DR2w2beta-2) = DRB5*0101 (DR2w2beta-2) (Homo sapiens, UniProt P01903+Q30154); test: biochemical
DRB1*0901 = DRB1*0901 (Homo sapiens, UniProt P01903+P01911, A100R/A103E/D57H/D86V/F55Y/F60I/F76Y/I96F/K127E/L162R/M171V/P40D/Q125H/Q99R/R33Q/R42F/S133A/S66N/T210M/V115G/W38K/Y107V/Y59G/Y89S); test: biochemical
DRB1*0701 (DR7) = DRB1*0701 (DR7) (Homo sapiens, UniProt P01903+P01911, A100R/A102G/A103Q/D57E/D86V/E43K/F76Y/K127E/L162R/M171V/P40G/Q125H/Q99D/R33Q/R42Y/R54Q/S133A/S66F/T210M/V115G/Y107V/Y59L/Y89S); test: biochemical

For CC(C)C[C@H](NC(=O)[C@H](CCC(N)=O)NC(=O)[C@H](CCC(N)=O)NC(=O)[C@@H](N)Cc1ccccc1)C(=O)N[C@@H](Cc1ccccc1)C(=O)N[C@@H](CC(C)C)C(=O)N[C@@H](CC(N)=O)C(=O)N[C@H](C(=O)N[C@@H](CC(C)C)C(=O)N[C@@H](CO)C(=O)N[C@@H](Cc1ccccc1)C(=O)N[C@H](C(=O)N[C@@H](CS)C(=O)N1CCC[C@H]1C(=O)N[C@@H](Cc1c[nH]c2ccccc12)C(=O)O)C(C)C)[C@@H](C)O [compound 105], the IC50 (DRB1*0802 (DR8w2)) was 9000 nM.
ISDYRHYCY [compound 5] gave an IC50 (HLA A0101) of 10 nM.
Work on STDLRDHIDY [compound 3] yielded an IC50 (HLA A0101) of 113 nM and an IC50 (HLA A2601) of 758 nM.
CC[C@H](C)[C@H](NC(=O)[C@H](Cc1c[nH]cn1)NC(=O)[C@H](C)NC(=O)[C@H](Cc1ccc(O)cc1)NC(=O)[C@H](CC(C)C)NC(=O)[C@@H](NC(=O)[C@H](Cc1ccccc1)NC(=O)[C@@H]1CCCN1C(=O)[C@H](CCC(N)=O)NC(=O)[C@@H](NC(=O)[C@H](CC(C)C)NC(=O)[C@@H](NC(=O)[C@H](CCCCN)NC(=O)[C@@H](N)Cc1ccccc1)[C@@H](C)O)[C@@H](C)CC)[C@@H](C)CC)C(=O)N[C@@H](CCC(N)=O)C(=O)O [compound 98] gave an IC50 (DRB1*1101 (DR5)) of 6690 nM.
Work on C[C@@H](O)[C@H](NC(=O)CN)C(=O)NCC(=O)N[C@@H](CS)C(=O)N[C@@H](CC(N)=O)C(=O)NCC(=O)N[C@@H](Cc1c[nH]c2ccccc12)C(=O)N[C@@H](Cc1ccccc1)C(=O)N[C@@H](Cc1ccc(O)cc1)C(=O)O [compound 23] yielded an IC50 (HLA A0101) of 136 nM, an IC50 (HLA A2902) of 116 nM and an IC50 (HLA A2601) of 3080 nM. It also gave an IC50 (HLA A3002) of 9.1 nM.
With CC[C@H](C)[C@H](N)C(=O)N[C@@H](CCCNC(=N)N)C(=O)N[C@H](C(=O)N[C@@H](CC(C)C)C(=O)N[C@@H](CCC(=O)O)C(=O)N[C@@H](CC(=O)O)C(=O)N[C@@H](CC(C)C)C(=O)N[C@@H](CC(C)C)C(=O)N[C@@H](CCSC)C(=O)NCC(=O)N[C@H](C(=O)N[C@@H](CC(C)C)C(=O)NCC(=O)N[C@H](C(=O)N[C@H](C(=O)O)C(C)C)[C@@H](C)CC)[C@@H](C)O)[C@@H](C)O [compound 97] the IC50 (DRB5*0101 (DR2w2beta-2)) was greater than 20000 nM, the IC50 (DRB1*0901) was greater than 20000 nM and the IC50 (DRB1*1101 (DR5)) was greater than 20000 nM. It also gave an IC50 (DRB1*0802 (DR8w2)) greater than 20000 nM.
In the case of CC[C@H](C)[C@H](NC(=O)[C@H](Cc1c[nH]c2ccccc12)NC(=O)[C@H](CCC(=O)O)NC(=O)[C@@H]1CCCN1)C(=O)N[C@@H](CCC(N)=O)C(=O)N[C@@H](CCCNC(=N)N)C(=O)N[C@@H](CCC(N)=O)C(=O)N[C@H](C(=O)N[C@H](C(=O)N[C@@H](CC(C)C)C(=O)N[C@@H](CCC(N)=O)C(=O)N[C@@H](Cc1c[nH]cn1)C(=O)N[C@@H](CO)C(=O)N[C@@H](Cc1ccccc1)C(=O)N[C@@H](CC(N)=O)C(=O)O)C(C)C)[C@@H](C)O [compound 90], the IC50 (DRB1*0701 (DR7)) is reported as greater than 20000 nM.
Compound CC(C)C[C@H](NC(=O)[C@H](CCC(N)=O)NC(=O)[C@H](CCC(N)=O)NC(=O)[C@H](CC(C)C)NC(=O)[C@@H](NC(=O)[C@H](CCCNC(=N)N)NC(=O)[C@@H](N)CC(C)C)[C@@H](C)O)C(=O)N[C@@H](Cc1ccccc1)C(=O)N[C@@H](CC(C)C)C(=O)N[C@@H](CO)C(=O)N[C@H](C(=O)N[C@@H](CC(C)C)C(=O)N[C@@H](CO)C(=O)N[C@@H](Cc1ccccc1)C(=O)N[C@H](C(=O)O)C(C)C)[C@@H](C)O [compound 121] has an IC50 (DRB1*1101 (DR5)) of 1670 nM.
Work on CC[C@H](C)[C@H](NC(=O)CNC(=O)[C@@H](NC(=O)[C@H](CCCCN)NC(=O)[C@H](Cc1ccc(O)cc1)NC(=O)[C@H](Cc1c[nH]c2ccccc12)NC(=O)[C@H](Cc1ccc(O)cc1)NC(=O)[C@@H](N)CC(C)C)[C@@H](C)O)C(=O)N[C@@H](CO)C(=O)N[C@@H](CC(N)=O)C(=O)N[C@H](C(=O)N[C@@H](CO)C(=O)N[C@@H](CCC(=O)O)C(=O)N[C@H](C(=O)N[C@@H](Cc1ccc(O)cc1)C(=O)O)C(C)C)[C@@H](C)CC [compound 89] yielded an IC50 (DRB1*0901) of 90 nM.
In the case of QVDYYGLYY [compound 2], the IC50 (HLA A0101) is reported as 2.7 nM, the IC50 (HLA A2601) is reported as 251 nM and the IC50 (HLA A3002) is reported as 160 nM.
